Test results reported in US5068064A, “N-substituted lauramides, their preparation and compositions in which they are present” (Sanofi, priority 1989, dated 1991).
Converted amounts (≈) assume the structure as drawn.

What was measured:
[1] = tested on: Enterococcus faecium CIP 5855; assay: Percentage of bactericidal active principle, second method (5 min contact), E. faecium; format: cell-based; details: destruction of 99.99%
Text: (§1) In the two methods, a bacterial inoculum is brought into contact with different dilutions of the product for a determined period of time.
(§2) When the contact period has ended, an aliquot of the mixture of bacterial suspension and product is taken and brought into contact with an agent for neutralizing the bacterial activity of the mixture, either in a solid medium or in a liquid medium. The bactericidal activity of the product, expressed either as a concentration or as a percentage of active principle, corresponds to an absence of bacterial growth.
(§3) The second method makes it possible to define a percentage of bactericidal or fungicidal active principle by means of a simplified and automated adaptation of Afnor standards NF T 72-150 and NF T 72-170. In this method, the bactericidal activity of the product is determined with and without interfering substances. It is based on assessing the destruction of 99.99% of the initial bacteria by the product in 5 minutes. The interfering substances are of the protein type and are chosen for the actual conditions of application of this type of product. The contact time between product and bacterial suspension is 5 minutes, the neutralization step is 10 minutes and subculture is effected in a liquid medium.
(§4) The chosen bacterial strains are:
(§5) The strains are maintained on Tryptic Soy Agar® (TSA) marketed by Difco.
(§6) The strains are harvested in a manner identical to the first method; these suspensions contain between 1.10^8 and 3.10^8 cells per milliliter. Appropriate dilutions make it possible to have a suspension containing 2 to 6.10^3 cells per milliliter.
(§7) The experiment is performed in microtiter plates; it comprises two steps. The first step, called the preliminary test, checks that the product is indeed neutralized. In the test proper, the different dilutions of the product are brought into contact with 2 to 6.10^3 cells per milliliter of the bacterial suspension in the second row of the microtiter plate. After a contact time of 5 minutes, an aliquot is transferred to the third row containing the neutralizer adapted to the product and to the strain. After a contact time of 10 minutes, aliquots are transferred to the last 5 rows containing Tryptic Soy Broth® (TSB) from Difco.
(§8) The interfering substances tested are a mixture of albumin and yeast extract. In the first row of the microplate, these proteins are brought into contact for 5 minutes with the different dilutions of the product. After this step, the same principle as above is applied: 5 minutes of contact with the germ, 10 minutes of contact with the neutralizer, transfer to TSB.

[2] = tested on: Staphylococcus aureus CIP 53154; assay: Percentage of bactericidal active principle, second method (5 min contact), S. aureus; format: cell-based; details: with proteins as interfering substances, destruction of 99.99%
Text: as §1, §2, §3, §4
(§9) 1. Staphylococcus aureus
as §5, §6, §7, §8

[3] = tested on: Staphylococcus aureus CIP 53154; assay: Minimum bactericidal concentration, first method (30 min contact), S. aureus; format: cell-based; details: CIP53154, 0.5 h, contact time 30 minutes
Text: as §1, §2
(§10) The first method makes it possible to define a minimum bactericidal concentration (MBC) or minimum fungicidal concentration (MFC), expressed in μg/ml. The contact time between product and bacterial suspension is 30 minutes. The neutralizer is included in agar.
(§11) The CIP bacterial strains chosen for the study, which are available from the Institut Pasteur, are:
as §9, §5
(§12) After 24 hours of culture at 37° C., the microbial growth is harvested with the aid of glass beads and 10 ml of diluent containing 1 g of tryptone and 8.5 g of sodium chloride in 1000 ml of distilled water. The suspension formed is shaken and the percentage transmission of light at 620 nm is measured in a spectrophotometer:
(§13) The bacterial inoculum corresponds to a 1:20 dilution of this bacterial suspension.
(§14) Plates containing cupules receive different dilutions of the test product. These dilutions of the test product are brought into contact with the different bacterial suspensions using a multiple site inoculator. After a contact time of 30 minutes, aliquots are transferred with this inoculator to the surface of an agar medium (TSA) placed in Petri dishes containing an activity neutralizer, namely 20 g of lubrol W, 2.5 g of Tween 80, 2.5 g of sodium thiosulfate and 1% of egg yolk in 1000 ml of TSA (Difco). A control for the efficacy of the neutralizer is prepared for each test product by depositing an aliquot of the dilution of the test product on the surface of the culture medium. After drying, the corresponding inoculum is deposited in the same place. An inoculum control is prepared on agar medium with and without neutralizer. The results are read off after 48 hours of incubation at 37° C.
(§15) They indicate the minimum bactericidal concentrations (MBC) for strains 1, 2, 3 and 4 and the minimum fungicidal concentrations (MFC) for strain 5.

[4] = tested on: S. aureus, E. faecium, E. coli, P. aeruginosa, C. albicans, M. smegmatis; assay: Second method, bactericidal and fungicidal activity over all strains (Table III); format: cell-based; details: contact time 5 minutes
Text: as §1, §2
as §3, with “The contact time between product and bacterial suspension is 5 minutes, the neutralization step is 10 minutes and subculture is effected in a liquid medium.” left out
The antifungal activity of the products according to the invention was also determined with and without interfering substances using the method described above. […]

[5] = tested on: Pseudomonas aeruginosa CIP A22; assay: Percentage of bactericidal active principle, second method (5 min contact), P. aeruginosa; format: cell-based; details: destruction of 99.99%
Text: as §1, §2, §3, §4
4. Pseudomonas aeruginosa
as §5, §6, §7, §8

[6] = tested on: Pseudomonas aeruginosa CIP A22; assay: Minimum bactericidal concentration, first method (30 min contact), P. aeruginosa; format: cell-based; details: CIPA22, 0.5 h, contact time 30 minutes
Text: as §1, §2, §10, §11
4. Psuedomonas aeruginosa
as §5, §12, §13, §14, §15

[7] = tested on: Mycobacterium smegmatis CIP 7326; assay: Percentage of bactericidal active principle, second method (5 min contact), M. smegmatis; format: cell-based; details: with proteins as interfering substances, destruction of 99.99%
Text: as §1, §2, §3, §4
5. Mycobacterium smegmatis
as §5, §6, §7, §8

[8] = tested on: Escherichia coli CIP 54127; assay: Minimum bactericidal concentration, first method (30 min contact), E. coli; format: cell-based; details: CIP54127, 0.5 h, contact time 30 minutes
Text: as §1, §2, §10, §11
(§16) 3. Escherichia coli CIP 54127
as §5, §12, §13, §14, §15

Product solubility = details: water
[9] = tested on: Candida albicans CIP 1180; assay: Percentage of fungicidal active principle, second method (5 min contact), C. albicans; format: cell-based
Text: as §1, §2, §3, §7, §8
The antifungal activity of the products according to the invention was also determined with and without interfering substances using the method described above. The same strain was used as for the first technique, namely Candida albicans CIP 1180. It is harvested in an identical manner to that described in the first method.

[10] = tested on: Candida albicans CIP 1180; assay: Minimum fungicidal concentration, first method (30 min contact), C. albicans; format: cell-based; details: CIP1180, 0.5 h, contact time 30 minutes
Text: as §1, §2, §10, §14
The antifungal activity of the products according to the invention was also determined using the method described above. A representative strain of yeast was selected for the study: Candida albicans CIP 1180 (strain 5).
This is maintained on Sabouraud's Dextrose Agar marketed by Difco. The technique is identical to that described for studying the antibacterial activity. After 48 hours of culture at 37° C., the microbial growth is harvested with the aid of glass beads and 5 ml of diluent containing 1 g of tryptone and 8.5 g of sodium chloride in 1000 ml of distilled water; a further 5 ml of the diluent are then added. This suspension gives a percentage transmission of light at 620 nm of 2 to 3% in a spectrophotometer.
The inoculum corresponds to a 1:10 dilution of this microbial suspension. A 1:100 dilution of this suspension, observed between slide and cover glass through a No. 40 microscope objective, must show 10 cells per field, which corresponds to 1,000,000 yeasts per ml.
as §15

[11] = tested on: Enterococcus faecium CIP 5855; assay: Minimum bactericidal concentration, first method (30 min contact), E. faecium; format: cell-based; details: CIP5855, 0.5 h, contact time 30 minutes
Text: as §1, §2, §10, §11, §5, §12, §13, §14, §15

[12] = tested on: Escherichia coli CIP 54127; assay: Percentage of bactericidal active principle, second method (5 min contact), E. coli; format: cell-based; details: destruction of 99.99%
Text: as §1, §2, §3, §4, §16, §5, §6, §7, §8

[13] = Simple: without interfering substances
[14] = with proteins as interfering substances

With `CCCCCCCCCCCC(=O)NCCN(C)C` [D1, reference compound] the “Bactericidal activity, results in percentage of active principle, E. faecium” value [1, 13] was 0.01 percentage of active principle, the “Bactericidal activity, results in percentage of active principle, E. faecium” value [1, 14] was 0.1 percentage of active principle and the “Bactericidal activity, results in percentage of active principle, S. aureus” value [2] was 0.5 percentage of active principle. The MBC [3] was 50 mg/L (≈ 185 µM), the “Ranking of activities among the products” value [4] was “the activities are the lowest” and the “Bactericidal activity, results in percentage of active principle, P. aeruginosa” value [5, 13] was 0.05 percentage of active principle. The “Bactericidal activity, results in percentage of active principle, P. aeruginosa” value [5, 14] was 0.5 percentage of active principle, the MBC [6] was 50 mg/L (≈ 185 µM) and the “Bactericidal activity, results in percentage of active principle, M. smegmatis” value [7] was > 0.5 percentage of active principle. For the same molecule, the MBC [8] was 50 mg/L (≈ 185 µM), the solubility (Product solubility) was 18 mg/mL (≈ 66600 µM) and the “Fungicidal activity, results in percentage of active principle, C. albicans” value [9, 13] was 0.1 percentage of active principle. The “Fungicidal activity, results in percentage of active principle, C. albicans” value [9, 14] was 0.5 percentage of active principle, the MFC [10] was 200 mg/L (≈ 739 µM) and the MBC [11] was 50 mg/L (≈ 185 µM). The “Bactericidal activity, results in percentage of active principle, E. coli” value [12, 13] was 0.05 percentage of active principle and the “Bactericidal activity, results in percentage of active principle, E. coli” value [12, 14] was 0.1 percentage of active principle.
